Reference: patent US12522602B2, “Derivatives having 2,3-dihydro-1H-indene or 2,3-dihydrobenzofuran moiety or pharmaceutically acceptable salt thereof and pharmaceutical compositions comprising the same” (YUHAN CORPORATION, priority 2019, dated 2026)

Test system: GM1 production in Jurkat cells
Assay: cells
Assay type: cell-based
Details: Homo sapiens, Jurkat, 72 h

SMILES | IC50 [µM]
CC(C)(C)c1cccc(-c2cc3c(cc2F)C(NC(=O)O[C@@H]2CN4CCC2CC4)C(C)(C)C3)c1 (stereo partly drawn) [Example 374, (S)-quinuclidin-3-yl (5-(3-(tert-butyl)phenyl)-6-fluoro-2,2-dimethyl-2,3-dihydro-1H-inden-1-yl)carbamate] | 0.0265
COc1cccc(-c2cc3c(cc2F)C(NC(=O)O[C@@H]2CN4CCC2CC4)C(C)(C)C3)c1 (stereo partly drawn) [Example 375, (S)-quinuclidin-3-yl (6-fluoro-5-(3-methoxyphenyl)-2,2-dimethyl-2,3-dihydro-1H-inden-1-yl)carbamate] | 0.023
CCCOc1cccc(-c2cc3c(cc2F)C(NC(=O)O[C@@H]2CN4CCC2CC4)C(C)(C)C3)c1 (stereo partly drawn) [Example 377, (S)-quinuclidin-3-yl (6-fluoro-2,2-dimethyl-5-(3-propoxyphenyl)-2,3-dihydro-1H-inden-1-yl)carbamate] | 0.0355
CC(C)Oc1cccc(-c2cc3c(cc2F)C(NC(=O)O[C@@H]2CN4CCC2CC4)C(C)(C)C3)c1 (stereo partly drawn) [Example 378, (S)-quinuclidin-3-yl (6-fluoro-5-(3-isopropoxyphenyl)-2,2-dimethyl-2,3-dihydro-1H-inden-1-yl)carbamate] | 0.0875
CCCCOc1cccc(-c2cc3c(cc2F)C(NC(=O)O[C@@H]2CN4CCC2CC4)C(C)(C)C3)c1 (stereo partly drawn) [Example 379, (S)-quinuclidin-3-yl (5-(3-butoxyphenyl)-6-fluoro-2,2-dimethyl-2,3-dihydro-1H-inden-1-yl)carbamate] | 0.0158
CC(C)COc1cccc(-c2cc3c(cc2F)C(NC(=O)O[C@@H]2CN4CCC2CC4)C(C)(C)C3)c1 (stereo partly drawn) [Example 380, (S)-quinuclidin-3-yl (6-fluoro-5-(3-isobutoxyphenyl)-2,2-dimethyl-2,3-dihydro-1H-inden-1-yl)carbamate] | 0.0365
COc1ccc(-c2cc3c(cc2F)C(NC(=O)O[C@@H]2CN4CCC2CC4)C(C)(C)C3)c(OC)c1 (stereo partly drawn) [Example 381, (S)-quinuclidin-3-yl (5-(2,4-dimethoxyphenyl)-6-fluoro-2,2-dimethyl-2,3-dihydro-1H-inden-1-yl)carbamate] | 0.0599
COc1ccc(OC)c(-c2cc3c(cc2F)C(NC(=O)O[C@@H]2CN4CCC2CC4)C(C)(C)C3)c1 (stereo partly drawn) [Example 382, (S)-quinuclidin-3-yl (5-(2,5-dimethoxyphenyl)-6-fluoro-2,2-dimethyl-2,3-dihydro-1H-inden-1-yl)carbamate] | 0.0313
COc1cccc(OC)c1-c1cc2c(cc1F)C(NC(=O)O[C@@H]1CN3CCC1CC3)C(C)(C)C2 (stereo partly drawn) [Example 383, (S)-quinuclidin-3-yl (5-(2,6-dimethoxyphenyl)-6-fluoro-2,2-dimethyl-2,3-dihydro-1H-inden-1-yl)carbamate] | 0.123
COc1cc(OC)cc(-c2cc3c(cc2F)C(NC(=O)O[C@@H]2CN4CCC2CC4)C(C)(C)C3)c1 (stereo partly drawn) [Example 384, (S)-quinuclidin-3-yl (5-(3,5-dimethoxyphenyl)-6-fluoro-2,2-dimethyl-2,3-dihydro-1H-inden-1-yl)carbamate] | 0.0832
COc1ccc(-c2cc3c(cc2F)C(NC(=O)O[C@@H]2CN4CCC2CC4)C(C)(C)C3)cc1OC (stereo partly drawn) [Example 385, (S)-quinuclidin-3-yl (5-(3,4-dimethoxyphenyl)-6-fluoro-2,2-dimethyl-2,3-dihydro-1H-inden-1-yl)carbamate] | 0.332
COc1ccc(-c2cc3c(cc2F)C(NC(=O)O[C@@H]2CN4CCC2CC4)C(C)(C)C3)c(Cl)c1 (stereo partly drawn) [Example 386, (S)-quinuclidin-3-yl (5-(2-chloro-4-methoxyphenyl)-6-fluoro-2,2-dimethyl-2,3-dihydro-1H-inden-1-yl)carbamate] | 0.0295
CCOc1ccc(-c2cc3c(cc2F)C(NC(=O)O[C@@H]2CN4CCC2CC4)C(C)(C)C3)cc1F (stereo partly drawn) [Example 387, (S)-quinuclidin-3-yl (5-(4-ethoxy-3-fluorophenyl)-6-fluoro-2,2-dimethyl-2,3-dihydro-1H-inden-1-yl)carbamate] | 0.0482
Cc1cc(-c2cc3c(cc2F)C(NC(=O)O[C@@H]2CN4CCC2CC4)C(C)(C)C3)cc(C)c1OC(C)C (stereo partly drawn) [Example 388, (S)-quinuclidin-3-yl (6-fluoro-5-(4-isopropoxy-3,5-dimethylphenyl)-2,2-dimethyl-2,3-dihydro-1H-inden-1-yl)carbamate] | 0.0931
O=C(NC1c2ccc(-c3ccc(F)cc3)cc2CC12CC2)O[C@@H]1CN2CCC1CC2 (stereo partly drawn) [Example 389, (S)-quinuclidin-3-yl (5′-(4-fluorophenyl)-1′,3′-dihydrospiro[cyclopropane-1,2′-inden]-1′-yl)carbamate] | 0.0765
O=C(NC1c2ccc(-c3ccc(Cl)cc3)cc2CC12CC2)O[C@@H]1CN2CCC1CC2 (stereo partly drawn) [Example 390, (S)-quinuclidin-3-yl (5′-(4-chlorophenyl)-1′,3′-dihydrospiro[cyclopropane-1,2′-inden]-1′-yl)carbamate] | 0.0441
O=C(NC1c2ccc(-c3ccc(C(F)(F)F)cc3)cc2CC12CC2)O[C@@H]1CN2CCC1CC2 (stereo partly drawn) [Example 391, (S)-quinuclidin-3-yl (5′-(4-(trifluoromethyl)phenyl)-1′,3′-dihydrospiro[cyclopropane-1,2′-inden]-1′-yl)carbamate] | 0.0553
O=C(NC1c2ccc(-c3ccc(OC(F)(F)F)cc3)cc2CC12CC2)O[C@@H]1CN2CCC1CC2 (stereo partly drawn) [Example 392, (S)-quinuclidin-3-yl (5′-(4-(trifluoromethoxy)phenyl)-1′,3′-dihydrospiro[cyclopropane-1,2′-inden]-1′-yl)carbamate] | 0.0419

SMILES | IC50 [µM]
O=C(NC1c2ccc(-c3cccc(Cl)c3)cc2CC12CC2)O[C@@H]1CN2CCC1CC2 (stereo partly drawn) [Example 393, (S)-quinuclidin-3-yl (5′-(3-chlorophenyl)-1′,3′-dihydrospiro[cyclopropane-1,2′-inden]-1′-yl)carbamate] | 0.0549
O=C(NC1c2ccc(-c3cccc(C(F)(F)F)c3)cc2CC12CC2)O[C@@H]1CN2CCC1CC2 (stereo partly drawn) [Example 394, (S)-quinuclidin-3-yl (5′-(3-(trifluoromethyl)phenyl)-1′,3′-dihydrospiro[cyclopropane-1,2′-inden]-1′-yl)carbamate] | 0.0488
COCCOc1ccc(-c2ccc3c(c2)CC2(CC2)C3NC(=O)O[C@@H]2CN3CCC2CC3)cc1 (stereo partly drawn) [Example 395, (S)-quinuclidin-3-yl (5′-(4-(2-methoxyethoxy)phenyl)-1′,3′-dihydrospiro[cyclopropane-1,2′-inden]-1′-yl)carbamate] | 0.0309
COCCOc1cccc(-c2ccc3c(c2)CC2(CC2)C3NC(=O)O[C@@H]2CN3CCC2CC3)c1 (stereo partly drawn) [Example 396, (S)-quinuclidin-3-yl (5′-(3-(2-methoxyethoxy)phenyl)-1′,3′-dihydrospiro[cyclopropane-1,2′-inden]-1′-yl)carbamate] | 0.0396
COCOc1ccc(-c2ccc3c(c2)CC2(CC2)C3NC(=O)O[C@@H]2CN3CCC2CC3)cc1 (stereo partly drawn) [Example 397, (S)-quinuclidin-3-yl (5′-(4-(methoxymethoxy)phenyl)-1′,3′-dihydrospiro[cyclopropane-1,2′-inden]-1′-yl)carbamate] | 0.0174
COCOc1cccc(-c2ccc3c(c2)CC2(CC2)C3NC(=O)O[C@@H]2CN3CCC2CC3)c1 (stereo partly drawn) [Example 398, (S)-quinuclidin-3-yl (5′-(3-(methoxymethoxy)phenyl)-1′,3′-dihydrospiro[cyclopropane-1,2′-inden]-1′-yl)carbamate] | 0.0366
CC1(C)CC(NC(=O)O[C@@H]2CN3CCC2CC3)c2ccc(-c3cccc(Cl)c3)cc21 (stereo partly drawn) [Example 399, (S)-quinuclidin-3-yl (5-(3-chlorophenyl)-3,3-dimethyl-2,3-dihydro-1H-inden-1-yl)carbamate] | 0.0436
CC1(C)CC(NC(=O)O[C@@H]2CN3CCC2CC3)c2ccc(-c3ccccc3Cl)cc21 (stereo partly drawn) [Example 400, (S)-quinuclidin-3-yl (5-(2-chlorophenyl)-3,3-dimethyl-2,3-dihydro-1H-inden-1-yl)carbamate] | 0.107
CC1(C)CC(NC(=O)O[C@@H]2CN3CCC2CC3)c2ccc(-c3cccc(C(F)(F)F)c3)cc21 (stereo partly drawn) [Example 401, (S)-quinuclidin-3-yl (3,3-dimethyl-5-(3-(trifluoromethyl)phenyl)-2,3-dihydro-1H-inden-1-yl)carbamate] | 0.0151
CC1(C)CC(NC(=O)O[C@@H]2CN3CCC2CC3)c2ccc(-c3cccc(OC(F)(F)F)c3)cc21 (stereo partly drawn) [Example 402, (S)-quinuclidin-3-yl (3,3-dimethyl-5-(3-(trifluoromethoxy)phenyl)-2,3-dihydro-1H-inden-1-yl)carbamate] | 0.0195
CC1(C)CC(NC(=O)O[C@@H]2CN3CCC2CC3)c2ccc(-c3ccccc3OC(F)(F)F)cc21 (stereo partly drawn) [Example 403, (S)-quinuclidin-3-yl (3,3-dimethyl-5-(2-(trifluoromethoxy)phenyl)-2,3-dihydro-1H-inden-1-yl)carbamate] | 0.0853
O=C(NC1COc2cc(-c3cccc(C(F)(F)F)c3)ccc21)O[C@@H]1CN2CCC1CC2 (stereo partly drawn) [Example 404, (S)-quinuclidin-3-yl (6-(3-(trifluoromethyl)phenyl)-2,3-dihydrobenzofuran-3-yl)carbamate] | 0.0259
O=C(NC1COc2cc(-c3cccc(OC(F)(F)F)c3)ccc21)O[C@@H]1CN2CCC1CC2 (stereo partly drawn) [Example 405, (S)-quinuclidin-3-yl (6-(3-(trifluoromethoxy)phenyl)-2,3-dihydrobenzofuran-3-yl)carbamate] | 0.0447
CC1(C)Oc2ccc(-c3cccc(F)c3)cc2C1NC(=O)O[C@@H]1CN2CCC1CC2 (stereo partly drawn) [Example 406, (S)-quinuclidin-3-yl (5-(3-fluorophenyl)-2,2-dimethyl-2,3-dihydrobenzofuran-3-yl)carbamate] | 0.12
CC1(C)Oc2cc(-c3cccc(F)c3)ccc2C1NC(=O)O[C@@H]1CN2CCC1CC2 (stereo partly drawn) [Example 407, (S)-quinuclidin-3-yl (6-(3-fluorophenyl)-2,2-dimethyl-2,3-dihydrobenzofuran-3-yl)carbamate] | 0.0444
CC1(C)Oc2cc(-c3cccc(Cl)c3)ccc2C1NC(=O)O[C@@H]1CN2CCC1CC2 (stereo partly drawn) [Example 408, (S)-quinuclidin-3-yl (6-(3-chlorophenyl)-2,2-dimethyl-2,3-dihydrobenzofuran-3-yl)carbamate] | 0.0158
CC1(C)Oc2cc(-c3cccc(C(F)(F)F)c3)ccc2C1NC(=O)O[C@@H]1CN2CCC1CC2 (stereo partly drawn) [Example 409, (S)-quinuclidin-3-yl (2,2-dimethyl-6-(3-(trifluoromethyl)phenyl)-2,3-dihydrobenzofuran-3-yl)carbamate] | 0.0149
